Non-standard residues stand in square brackets, D forms with d. Residues, ends and D or L forms follow the SMILES beside them. *: point of attachment. dPhe(4-NHCONH2) = NC(=O)Nc1ccc(C[C@@H](N)C(=O)O)cc1; Dihydroorotyl(S) = O=C1C[C@@H](C(=O)*)NC(=O)N1; dPhe(4-Cl) = N[C@H](Cc1ccc(Cl)cc1)C(=O)O; Phe(4-NH2) = Nc1ccc(C[C@H](N)C(=O)O)cc1; d2Nal = N[C@H](Cc1ccc2ccccc2c1)C(=O)O; Lys(iPr) = CC(C)NCCCC[C@H](N)C(=O)O; d3Pal = N[C@H](Cc1cccnc1)C(=O)O
Columns and labels:
[1] = Instability of the hydroorotic moiety under basic conditions (DCHA in wet 2-BuOH); type: physicochemical; conditions: 67 mM in wet 2-BuOH with 167 mM (2.5 eq) DCHA, 31° C, after 25 h
Protocol: The following experiment provided further proof of the instability of the hydrooroic moiety under basic conditions. Z-Ser(tBu)-4Aph(Hor)-D-4Aph(tBu-Cbm)-Leu-OH.DCHA (67 mM) was dissolved in wet 2-BuOH with 167 mM (2.5 eq) DCHA at 31° C. After 25 h, 1.3% of the hydantoin analogue and 0.3% of the hydrolysed intermediate had been formed.

[2] = Stability of degarelix in DBU/DMF and piperidine/DMF (Fmoc-removal conditions), HPLC; type: physicochemical; conditions: 20 h
Protocol: Stability of degarelix in DBU/DMF and piperidine/DMF. The stability of degarelix was tested under conditions corresponding to those used for removal of the Fmoc-group during SPPS. The hydroorotic group in the side chain of 4Aph(Hor), amino acid residue no. 5 in the sequence of degarelix, is known to be sensitive to base and rearrange to a hydantoinacetyl group. All SPPS procedures known to the inventors had been based on Boc-chemistry.
Samples of degarelix were dissolved in 20% piperidine/DMF; 2% DBU in DMF, and 2% DBU+5% water in DMF; respectively. The samples were analysed by HPLC after 20 h and the amount of the hydantoin analogue determined.
If 5% water was present, too (simulating wet DMF), the amount was increased to 7%.

Row | Compound | hydantoin analogue formed [1] [%] | hydrolysed intermediate formed [1] [%] | amount of the hydantoin analogue formed ([2]; 2% DBU + 5% water in DMF (simulating wet DMF)) [%] | amount of the hydantoin analogue formed ([2]; 2% DBU in DMF) [%] | formation of the hydantoin analogue ([2]; 20% piperidine in DMF)
1 | Z-Ser(tBu)-4Aph(Hor)-D-4Aph(tBu-Cbm)-Leu-OH.DCHA | 1.3 | 0.3 |  |  | 
2 | CC(=O)N[C@H](Cc1ccc2ccccc2c1)C(=O)N[C@H](Cc1ccc(Cl)cc1)C(=O)N[C@H](Cc1cccnc1)C(=O)N[C@@H](CO)C(=O)N[C@@H](Cc1ccc(NC(=O)[C@@H]2CC(=O)NC(=O)N2)cc1)C(=O)N[C@H](Cc1ccc(NC(N)=O)cc1)C(=O)N[C@@H](CC(C)C)C(=O)N[C@@H](CCCCNC(C)C)C(=O)N1CCC[C@H]1C(=O)N[C@H](C)C(N)=O [degarelix, Ac-D-2Nal-D-Phe(4Cl)-D-3 Pal-Ser-4Aph(Hor)-D-4Aph(Cbm)-Leu-ILys-Pro-D-Ala-NH2] (Ac-[d2Nal][dPhe(4-Cl)][d3Pal]S[Phe(4-NH2)](Dihydroorotyl(S))[dPhe(4-NHCONH2)]L[Lys(iPr)]P[dA]-NH2) |  |  | 7 | 1.8 | did not result in any formation of the hydantoin analogue
